Like-named read-outs stand apart in the source and are kept apart here.
Experiments:
[1] = test system: T. cruzi epimastigotes, Tulahuen 2 strain (genotype TcVI); test: In vitro anti-T. cruzi activity, growth inhibition of epimastigotes; assay type: cell-based, Trypanosoma cruzi; details: for IC50: Trypanosoma cruzi, TULAHUEN; for Trypanocidal activity on T. cruzi in words: molecular stripping, epimastigotes
Description: For the in vitro anti-T. cruzi activity, we used epimastigotes of the Tulahuen 2 strain (genotype TcVI) grown in an axenic milieu (BHI-Tryptose). Cells from a 5–7-day-old culture were inoculated in fresh culture milieu to give an initial concentration of 1.00 × 10^6 cells/mL. The absorbance at 600 nm of the cells in culture was measured every day. At Day 5, the milieu was inoculated with different quantities of the compounds from a stock solution in DMSO (DMSO concentration in the culture milieu never exceeded 0.4%). The control was made in the presence of 0.4% DMSO and in the absence of compounds. Each concentration of compound was evaluated in duplicate. At Day 5, the absorbance of the culture was measured and related to the control. […] Each antiproliferative experiment was done in duplicate, and each concentration was tested in triplicate.

[2] = test system: L. infantum promastigotes; test: Leishmanicidal activity on promastigotes, resazurin; assay type: cell-based, Leishmania infantum; details: 48 h, read-out: IC50 ± SD Promastigotes L. infantum
From the text: (§1) We initially selected compounds previously reported to have anti-T. cruzi activity from our chemical library to evaluate their leishmanicidal activity. […]. To evaluate their activity in Leishmania spp., we performed a phenotypic screening using the promastigote form of L. infantum (MHOM/FR/91/LEM-2259) and L. braziliensis ([…]) (Table 1A for the thiazolidenehydrazine derivate and Table 1B for the arylideneketones family).
(§2) A culture of L. braziliensis (MHOM/BR/75/M2904) and L. infantum (MHOM/FR/91/LEM2259V) was obtained from the Facultad de Farmacia (Universidad Complutense, Madrid, Spain). The maintenance of the strains, the form of cultivation and the isolation of the shape of the promastigote were performed following the procedures described by Roldos et al.. The promastigotes were grown at 22 °C in Schneider’s Drosophila medium supplemented with 20% FBS. The assay was performed using a modification of a previous method. Promastigotes (2 × 10^6 parasites/well) were cultivated in 96-well plastic plates. Compounds were dissolved in dimethylsulfoxide (DMSO). Different dilutions of the compounds with a final volume up to 200 µL were added. After 48 h at 26 °C, 20 µL of a 2 mM resazurin solution were added, and the oxidation-reduction was quantified at 570 and 600 nm. The solution of resazurin was prepared at 2.5 mM in phosphate buffered solution (PBS), pH 7.4, and filtered through 0.22-µm membranes prior to use. All tests were carried out in triplicate. Resazurin sodium salt was obtained from Sigma-Aldrich (St. Louis, MO, USA) and stored at 4 °C protected from light. The efficacy of each compound was estimated by calculating the IC50 values. Each antiproliferative experiment was done in duplicate, and each concentration was tested in triplicate.

[3] = test system: L. braziliensis promastigotes; test: Leishmanicidal activity on promastigotes, resazurin; assay type: cell-based, Leishmania braziliensis; details: 48 h, read-out: IC50 ± SD Promastigotes L. braziliensis
From the text: as §1, §2

[4] = test system: zebrafish embryos; test: Zebrafish embryo toxicity test (LD50)
Description: […] Only embryos that were clearly undamaged after 60 min of observation were kept and subsequently used. Dechorionated embryos were further manipulated using flame-rounded tip glass Pasteur pipettes. […] In all cases, the embryos were incubated in system water with 1% DMSO (negative control) and the compound at different doses between 8 and 96 hpf. The treatment solution was changed daily. […] At selected time points, namely 24, 48, 72 and 96 hpf, embryotoxicity (= mortality) and morphological characteristics of the embryos were evaluated using a Nikon SMZ800 stereomicroscope. The embryos were evaluated for the presence and morphological development (as appropriate) of somites, tail detachment, eyes, heart beat and blood circulation. All individuals were evaluated at all time points.

[5] = Tulahuen 2 strain, read-out: IC50 ± SD Epimastigotes T. cruzi
[6] = Figure 4, molecular stripping of HIT1, read-out: Effect of structural change on trypanocidal activity (emoticon code)

SMILES | IC50 [1, 5] | Trypanocidal activity on T. cruzi in words [1] | IC50 [1, 6] | also measured
C(=C\c1ccco1)/C=N/N1CCN(Cc2ccccc2)CC1 [GAT1912, (E)-4-benzyl-N-((E)-3-(furan-2-yl)allylidene)piperazin-1-amine] | > 25 µM | – | > 25 µM | IC50 ([2]; Leishmania infantum): > 100 µM; melting point: 145 to 147 °C; IC50 ([3]; Leishmania braziliensis): > 100 µM
Nc1nc(-c2ccc(Cl)cc2)cs1 [GAT2012, 4(4-Chlorophenyl)-thiazol-2(3H)-ylidene-2-amine] | > 25 µM | lack of activity | – | –
C=CCn1c(-c2ccc(Br)cc2)cs\c1=N/N=C/C(C)=C/c1ccco1 [GAT2015] | – | – | – | IC50 [2]: > 25 µM; IC50 [3]: > 25 µM
Clc1ccc(-c2csc(/N=C/C=C/c3ccco3)n2)cc1 [GAT2112, (E)-4-(4-Chlorophenyl)-N-((E)-3-(furan-2-yl)allylidene)thiazol-2-amine] | – | the activity was lost | – | –
C=CCn1c(-c2ccc(Cl)cc2)cs\c1=N/N=C/C=C/C=C/c1ccco1 [GATA2] | 10 ± 2 µM | – | – | –
C=CCn1c(C(=O)CNCc2ccccc2)cs/c1=N/N=C\C=C\c1ccco1 [GATk4, 1-((Z)-3-allyl-2-((E)-((E)-3-(furan-2-yl)allylidene)hydrazono)-2,3-dihydrothiazol-4-yl)-2-(benzylamino)ethanone] | > 25 µM | – | > 25 µM | –
C=CCn1c(C(=O)CN2CCN(Cc3ccccc3)CC2)cs/c1=N/N=C\C=C\c1ccco1 [GATk5, 1-((Z)-3-allyl-2-((E)-((E)-3-(furan-2-yl)allylidene)hydrazono)-2,3-dihydrothiazol-4-yl)-2-(4-benzylpiperazin-1-yl)ethanone] | > 25 µM | – | > 25 µM | –
CC(=O)N1CCN(c2ccc(OCC3COC(Cn4ccnc4)(c4ccc(Cl)cc4Cl)O3)cc2)CC1 (stereo not shown) [Ketoconazole, reference compound] | – | – | – | LD50 without chorion ([4]; dechorionated zebrafish embryos, 72 h incubation): 12 ± 3 µM; LD50 with chorion ([4]; zebrafish embryos with chorion): > 25 µM

Now from value to molecule, other results behind:

IC50 [1, 5] | SMILES | Trypanocidal activity on T. cruzi in words [1] | IC50 [1, 6] | also measured
20 ± 2 µM | C=CCn1c(C(=O)NN2CCN(C/C=C/c3ccccc3)CC2)cs\c1=N/N=C/C=C/c1ccco1 [GAT1613] | the activity was lost | – | –
2.7 ± 0.5 µM | C=CCn1c(C(=O)N2CCSCC2)csc1=NN=CC=Cc1ccco1 [GATjm18] | the activity was maintained | – | –
> 25 µM | C=CCn1c(C(=O)CN2CCN(c3ccccc3)CC2)csc1=NN=CC=Cc1ccco1 [GATk1, (2E,2Z)-2-(2-((E)-3-(furan-2-yl)propeniliden)hydrazono)-(3-allyl-2,3-dihydrothiazol-4-yl)-2-(4-phenylpiperazin-1-yl)ethanone] | – | > 25 µM | –
8 ± 1 µM | C=CCn1c(C(=O)CN2CCSCC2)cs/c1=N/N=C\C=C\c1ccco1 [GATk2, 1-((Z)-3-allyl-2-((E)-((E)-3-(furan-2-yl)allylidene)hydrazono)-2,3-dihydrothiazol-4-yl)-2-thiomorpholinoethanone] | – | – | –
> 25 µM | CN1C/C(=C\C=C\c2ccco2)C(=O)/C(=C/C=C/c2ccco2)C1 [Pg150, (3E,5E)-3,5-Bis((E)-3-(furan-2-yl)allylidene)-1-methylpiperidin-4-one] | the activity was completely lost | – | IC50 ([2]; Leishmania infantum): > 25 µM; IC50 ([3]; Leishmania braziliensis): > 25 µM

— publication PMC6154605, “Multi-Anti-Parasitic Activity of Arylidene Ketones and Thiazolidene Hydrazines against Trypanosoma cruzi and Leishmania spp” (Molecules : A Journal of Synthetic Chemistry and Natural …, 2017)
